{"source": "ChEMBL document CHEMBL3769311", "about": "“The natural flavone fukugetin as a mixed-type inhibitor for human tissue kallikreins” (Bioorg Med Chem Lett, 2016)", "key": {"Kallikrein-5": {"biological_target": "T1, Kallikrein-5 (Homo sapiens, UniProt Q9Y337)", "T1 sequence (Q9Y337 whole entry)": "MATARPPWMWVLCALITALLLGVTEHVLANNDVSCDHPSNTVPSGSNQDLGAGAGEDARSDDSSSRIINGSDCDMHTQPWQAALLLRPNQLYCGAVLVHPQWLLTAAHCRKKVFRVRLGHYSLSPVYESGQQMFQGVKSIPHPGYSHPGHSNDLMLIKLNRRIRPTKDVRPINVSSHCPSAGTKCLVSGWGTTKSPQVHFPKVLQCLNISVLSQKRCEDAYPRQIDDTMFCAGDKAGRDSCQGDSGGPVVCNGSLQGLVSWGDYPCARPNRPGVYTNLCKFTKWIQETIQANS", "experiment": "Inhibition of human tissue kallikrein-5 expressed in baculovirus infected insect cells using Abz-KLRSSQ-EDDnp as substrate preincubated for 10 mins followed by substrate addition by FRET assay"}, "[1]": {"biological_target": "T2, Prostate-specific antigen (Homo sapiens, UniProt P07288)", "T2 sequence (P07288 whole entry)": "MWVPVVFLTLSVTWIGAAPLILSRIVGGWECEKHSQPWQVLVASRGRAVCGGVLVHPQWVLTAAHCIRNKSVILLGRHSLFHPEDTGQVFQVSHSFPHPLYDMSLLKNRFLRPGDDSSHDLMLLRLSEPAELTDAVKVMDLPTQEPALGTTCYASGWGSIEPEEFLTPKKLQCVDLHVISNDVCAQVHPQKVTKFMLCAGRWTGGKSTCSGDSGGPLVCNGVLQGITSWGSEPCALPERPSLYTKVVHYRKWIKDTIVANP", "experiment": "Inhibition of human tissue kallikrein-3 expressed in baculovirus infected insect cells using Abz-KLYSSQ-EDDnp as substrate preincubated for 10 mins followed by substrate addition by FRET assay"}, "Kallikrein-2 [2]": {"biological_target": "T3, Kallikrein-2 (Homo sapiens, UniProt P20151)", "T3 sequence (P20151 whole entry)": "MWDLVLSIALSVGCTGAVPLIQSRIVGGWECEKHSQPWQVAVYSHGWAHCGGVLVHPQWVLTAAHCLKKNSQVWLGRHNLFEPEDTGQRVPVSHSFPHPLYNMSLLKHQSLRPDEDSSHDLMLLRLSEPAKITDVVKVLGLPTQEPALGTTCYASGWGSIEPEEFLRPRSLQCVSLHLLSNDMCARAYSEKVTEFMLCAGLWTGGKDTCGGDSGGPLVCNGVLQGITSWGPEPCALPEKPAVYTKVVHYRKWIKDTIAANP", "experiment": "Inhibition of human tissue kallikrein-2 expressed in baculovirus infected insect cells using Abz-KLRSSQ-EDDnp as substrate preincubated for 10 mins followed by substrate addition by FRET assay"}, "Kallikrein-7": {"biological_target": "Kallikrein-7 (Homo sapiens, UniProt P49862)", "sequence (P49862 whole entry)": "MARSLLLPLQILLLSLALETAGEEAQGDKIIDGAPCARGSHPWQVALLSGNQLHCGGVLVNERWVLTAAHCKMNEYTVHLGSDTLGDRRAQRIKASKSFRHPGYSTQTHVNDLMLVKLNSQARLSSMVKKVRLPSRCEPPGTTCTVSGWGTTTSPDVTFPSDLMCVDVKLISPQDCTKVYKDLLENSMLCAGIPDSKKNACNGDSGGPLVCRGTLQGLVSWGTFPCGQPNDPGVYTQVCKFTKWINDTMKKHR", "experiment": "Inhibition of human tissue kallikrein-7 expressed in baculovirus infected insect cells using Abz-KLYSSQ-EDDnp as substrate preincubated for 10 mins followed by substrate addition by FRET assay"}, "Kallikrein-1 [3]": {"biological_target": "T4, Kallikrein-1 (Homo sapiens, UniProt P06870)", "T4 sequence (P06870 whole entry)": "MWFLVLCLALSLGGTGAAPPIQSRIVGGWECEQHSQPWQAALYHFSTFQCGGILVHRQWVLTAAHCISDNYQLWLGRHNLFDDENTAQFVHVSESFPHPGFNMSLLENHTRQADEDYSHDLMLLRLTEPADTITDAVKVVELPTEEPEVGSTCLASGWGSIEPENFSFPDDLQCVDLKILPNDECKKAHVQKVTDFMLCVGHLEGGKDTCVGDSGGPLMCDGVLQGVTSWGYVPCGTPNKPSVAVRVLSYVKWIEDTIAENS", "experiment": "Inhibition of human tissue kallikrein-1 expressed in baculovirus infected insect cells using Abz-KLRSSQ-EDDnp as substrate preincubated for 10 mins followed by substrate addition by FRET assay"}, "Kallikrein-1 [4]": {"biological_target": "T4, Kallikrein-1", "experiment": "Mixed-type inhibition of human tissue kallikrein-1 expressed in baculovirus infected insect cells using Abz-KLRSSQ-EDDnp as substrate preincubated for 10 mins followed by substrate addition by Lineweaver-Burk plot analysis"}, "Kallikrein-6": {"biological_target": "Kallikrein-6 (Homo sapiens, UniProt Q92876)", "experiment": "Inhibition of human tissue kallikrein-6 expressed in baculovirus infected insect cells using Abz-KLRSSQ-EDDnp as substrate preincubated for 10 mins followed by substrate addition by FRET assay"}, "Kallikrein-2 [5]": {"biological_target": "T3, Kallikrein-2", "experiment": "Mixed-type inhibition of human tissue kallikrein-2 expressed in baculovirus infected insect cells using Abz-KLRSSQ-EDDnp as substrate preincubated for 10 mins followed by substrate addition by Lineweaver-Burk plot analysis"}}}
{"molecule": "O=C1CC(c2ccc(O)c(O)c2)Oc2c1c(O)cc(O)c2[C@@H]1C(=O)c2c(O)cc(O)cc2O[C@H]1c1ccc(O)cc1", "note": "(stereo partly drawn) [FUKUGETIN]", "values": [{"measurement": "IC50", "setting": "Kallikrein-5", "value": 12.5, "unit": "µM"}, {"measurement": "IC50", "setting": "[1]", "value": 13, "unit": "µM"}, {"measurement": "IC50", "setting": "Kallikrein-2 [2]", "value": 3.2, "unit": "µM"}, {"measurement": "IC50", "setting": "Kallikrein-7", "value": 15, "unit": "µM"}, {"measurement": "IC50", "setting": "Kallikrein-1 [3]", "value": 5.7, "unit": "µM"}, {"measurement": "Ki", "setting": "Kallikrein-1 [4]", "value": 3.6, "unit": "µM"}, {"measurement": "IC50", "setting": "Kallikrein-6", "value": 13.5, "unit": "µM"}, {"measurement": "Ki", "setting": "Kallikrein-2 [5]", "value": 1.6, "unit": "µM"}]}
